One block for each molecule: values may come before it. Where a SMILES comes first, the peptide text is derived from it. Where no end group is shown, it is not given here. [ ]: non-standard residue; d: D form. The star is where a group is joined. 1Nal = N[C@@H](Cc1cccc2ccccc12)C(=O)O; AEEA = NCCOCCOCC(=O)O; Butyryl = CCCC(=O)*
Experiments:
in vivo = assay: in vivo; design: species or system rodents; conditions: topical or ocular, 2 ug
Method: In addition, bioavailability studies of the peptides in rodent eyes were conducted and the results were compared to the control standard P78 peptide. For example, the peptides were tested in bioavailability studies in rodents at 1, 2, 4, 8 hrs (n=4 each peptide/time pt). The animals were given a single eye drop containing 2 μg of each peptide. At each time point the animals were sacrificed, vitreous harvested, and bioavailability assessed by Maldi TOF.

[1] = Peptide bioavailability in mouse vitreous after 5 μg eye drop (MALDI TOF); assay type: in vivo, C57BL/6 mice; conditions: compared to P78 and SpxA1
Method: Before the longitudinal efficacy studies were carried out in vivo, the bioavailability of the five analogs was examined in comparison to the parent compound P78 and its active 29-mer derivative, SpxA1.
Bioavailability of each peptide was determined in vitreous samples obtained at various time points after eye drops were given. Vitreous samples were harvested from enucleated eyes and immediately analyzed by mass spectrometry. Spectral intensities were compared to spectra of known concentrations of each analog to calculate amounts of peptides reaching the vitreous. The eye drops administered to normal mouse eyes contained 5 μg of the test compound. Bioavailability was studied at three time points: 1, 4, 6 hr using four animals/time point (n=8 eyes). The vitreous was rapidly dissected from each group after the drops were given and immediately analyzed by MALDI TOF.

human ARPE19 cells = assay: Cell viability by ATP levels (CellTiter-Glo), serum starvation or H2O2; assay type: cell-based
Method: (§1) The analogs were tested for their efficacy in reducing levels of TNFα, IFNγ, VEGF-A and increasing cell viability in in vitro assays. Efficacy was compared to both non-treated oxidative stressed controls and the control standard P78.
(§2) Briefly, to test efficacy of the compounds in preventing cell death, experiments were performed to screen for the ability of each analog to: 1) increase cellular bioenergetic levels in an ATP assay and 2) reduce cell death in an LDH assay. To test the action of each analog on inflammatory processes, Luminex bead arrays were used to examine the ability of each analog to decrease production of inflammatory cytokines. To test for the potential of each analog to reduce vascular leakage, qPCR was used to examine the ability of each analog to increase mRNA levels of ZO1 and occludin, two junction proteins essential to vascular integrity. To test peptide stability in the vitreous, the analogs were incubated with dissected vitreous humor and the samples were analyzed at various time points using Maldi-TOF. These tests allowed for the systematic selection of analogs having the least toxicity and the strongest potential to reduce pathology in vivo.
The effects of the peptides to increase cell viability by increasing levels of ATP were tested in two models of cell death: (i) serum starvation; (ii) oxidative stress caused by hydrogen peroxide toxicity (300 uM). With respect to serum starvation, human ARPE19 cells were grown to ˜85% confluency in 10% serum containing medium after which the cells were placed in serum-free medium for 48 hr in the presence or absence (control) of 25 nM of each peptide. For ATP assay, CellTiter-Glo® reagents were used and luminescence was determined after 12 min spectrophotometrically (n=4) (FIG. 2A). With respect to oxidative stress, human ARPE19 cells were grown to ˜85% confluency in 10% serum containing medium. The cells were then treated with 300 uM H2O2 for 48 hours in the presence or absence (control) of 25 nM of each peptide. Levels of ATP were measured and % luminescence to controls and P78 was quantitated (n=4). Changes to ATP levels are plotted against control values and p values are given to P78 (FIG. 2B).

ZO1 and occludin = assay: qPCR of tight junction mRNA (potential to reduce vascular leakage); assay type: cell-based; conditions: compared to P78 and SpxA1
Method: as §2
To test for the potential of each peptide (81-2, 81-5, 81-12, 81-13 and 81-20) to reduce vascular leakage, qPCR was used to examine the ability of each analog to increase mRNA levels of Z01, a junction protein essential to vascular integrity (FIG. 4A).

HUVEC = assay: VEGF-mediated HUVEC tube formation on human dermal fibroblasts; assay type: cell-based; conditions: 100 nM peptide, 4 ng/ml VEGF, 12 days; compared to VEGF
Method: Human dermal fibroblasts were cultured at 1×10^5/well in IncuCyte seeding medium (Essen Bioscience) in 96 wells plates for 1 hr. Medium was removed and replaced with complete IncuCyte growth medium (Essen Bioscience). Human umbilical vein endothelial cells (HUVEC) containing a green fluorescent marker (HUVEC CytoLight green) cells at 2000 cells/well were/well to attached dermal fibroblasts cultures and placed in the IncuCyte Zoom fluorescent and phase contrast multiplex imaging incubator (Essen BioScience). Twenty four hours later 4 ng/ml VEGF was added to all wells and 100 nM/ml PEDF peptides added to test wells. Cultures containing VEGF alone were used as positive controls and those containing 100 μM Suramin (VEGF inhibitor) used as negative controls. The cultures were placed at 37° C. in the Incucyte Zoom and HUVEC tube length networks measured over a 12 day incubation period using the Incucyte CellPlayer Angiogenesis software module and interface systems. Media was refreshed every 3-4 days.

TNFα = TNFα secretion by RPE cells, Luminex; assay type: cell-based, human
Method: as §1, §2
(§3) Experiments were designed to assess the effects of each peptide compared to P78 on the inflammatory and vascular permeability/angiogenesis cytokines TNFα, IFNγ, and VEGFA. […]

IFNγ = IFNγ secretion by RPE cells, Luminex; assay type: cell-based, human
Method: as §1, §2, §3

VEGFA = VEGFA secretion by RPE cells, Luminex; assay type: cell-based, human; conditions: for effect in reducing VEGFA levels compared to P78: 25 nM peptide, serum starvation
Method: as §1, §2
Experiments were designed to assess the effects of each peptide compared to P78 on the inflammatory and vascular permeability/angiogenesis cytokines TNFα, IFNγ, and VEGFA. Briefly, human retinal RPE cells were grown to ˜75% confluency in 10% serum containing medium. The cells were then exposed to serum starvation in the presence or absence (control) of 25 nM of each peptide including the prototype P78 and the active fragment of P78, SpxA1. The supernatant from each treatment was tested for effects on the secretion of TNFα, IFNγ, and VEGFA. The data represent the percent change to the control samples and p values are given for each peptide in relationship to the P78 treatment (FIGS. 3A through 3B).

RPE cultures = assay: In vitro tests of inflammation, angiogenesis and cell viability, summarised together; assay type: cell-based, human; conditions: assays other than VEGFA
Method: as §1
The analogs disclosed in Table 1 were assayed for improved stability and efficacy in in vitro assays for inflammation, angiogenesis, and cell death, which are the three leading pathological features of diabetic retinopathy.
as §2, with “These tests allowed for the systematic selection of analogs having the least toxicity and the strongest potential to reduce pathology in vivo.” left out

[2] = change versus control standard P78
[3] = change versus non-treated stressed control (C)

Molecule: CCCC(=O)N[C@@H](CO)C(=O)N[C@@H](C)C(=O)N[C@H](C(=O)N[C@@H](CO)C(=O)N[C@H](C(=O)NCC(=O)N[C@@H](C)C(=O)N[C@@H](CC(=O)O)C(=O)N[C@@H](C)C(=O)N[C@@H](CCCNC(=N)N)C(=O)N[C@H](C(=O)N[C@@H](C)C(=O)N[C@@H](CO)C(=O)N[C@H](C(=O)N[C@H](C(=O)N[C@@H](Cc1c[nH]cn1)C(=O)N[C@@H](CCCNC(=N)N)C(=O)NCCOCCOCC(=O)O)[C@@H](C)CC)[C@@H](C)CC)[C@@H](C)O)[C@@H](C)CC)[C@@H](C)CC [Peptide 81-5, {BA*}SAISIGADARTASIIHR{PEG*}] (Butyryl-SAISIGADARTASIIHR[AEEA]-OH)
stability profile in the vitreous after 6 hr [1]: best stability profile

Molecule: L-1-NALGADERTESIIHR ([1Nal]GADERTESIIHR) [Peptide 81-20]
ATP viability tests: selection for in vivo studies (human ARPE19 cells; serum starvation and 300 uM H2O2, 25 nM peptide, 48 hr): good candidates for the in vivo studies
ZO1 mRNA expression (ZO1 and occludin): higher expression of ZO1 compared to P78 and SpxA1
inhibition of HUVEC tube formation (HUVEC): prevented tube formation compared to VEGF but less effective

Molecule: {BA*}VLLSPLSVATALSAISIGADARTASIIHR{PEG*} (VLLSPLSVATALSAISIGADARTASIIHR[AEEA]; not fully specified (N-terminus); printed as {BA*}VLLSPLSVATALSAISIGADARTASIIHR{PEG*}) [Peptide 81-4, butyric acid on N-terminus, PEG2-CH2COOH at C-terminus]
*TNFα % to P78 (TNFα; [2]): −8%
*TNFα % to C (TNFα; [3]): −2%
*IFNγ % to P78 (IFNγ; [2]): −11%
*IFNγ % to C (IFNγ; [3]): −15%
*VEGF % to P78 (VEGFA; [2]): −0%
*VEGF % to C (VEGFA; [3]): −11%
*ATP % to P78 (human ARPE19 cells; [2]): 9%
*ATP % to C (human ARPE19 cells; [3]): +7%

Molecule: FGADERTESIIHR [Peptide 81-19]
effect in reducing VEGFA levels compared to P78 (VEGFA): significantly better effects in reducing VEGFA levels
effect on the other assays compared to P78 (RPE cultures): less effective than P78

Molecule: VLLSPLSVATALSAISIGADARTASIIHR [Peptide 81-10]
effect in reducing VEGFA levels compared to P78 (VEGFA): significantly better effects in reducing VEGFA levels
effect on the other assays compared to P78 (RPE cultures): less effective than P78

More lines, now with the values ahead:

level at 4 h (in vivo): 1800 ng/mL
Molecule: SALSLGADERTESIIHR [Peptide 81-1, SALSLGADERTESIIHR]

level at 4 h (in vivo): 2280 ng/mL
Molecule: SAISIGADARTASIIHR [Peptide 81-3, SAISIGADARTASIIHR]

level at 4 h (in vivo): 1200 ng/mL
Molecule: VLLSPLSVATALSALSLGADERTESIIHRALYYDLISSPDIHGT [Peptide P-78, reference compound]

level at 4 h (in vivo): 2000 ng/mL
Molecule: SAISIGADERTESIIHR [Peptide 81-2, SAISIGADERTESIIHR]

level at 4 h (in vivo): 920 ng/mL
Molecule: VLLSPLSVATALSALSLGADERTESIIHR [SpxA1]
